Measured values as given in patent US4542137A, “Alkylaminodesoxy-1.4;3.6-dianhydrohexitol nitrates substituted by purine bases and pharmaceutical compositions” (priority 1980, dated 1985).
pIC50: −log10 of the molar value. Where two headings read alike, the source gives them in different places.

Tests used:
[1] = test system: isolated guinea pig hearts; test: coronary flowthrough-increasing effectiveness on isolated guinea pig hearts according to Langendorff; conditions: Cavia porcellus, 25 μg/ml in tyrode solution, Langendorff heart; for activation at 25 µg/mL: read-out: flowthrough (coronary), percentage change in comparison with the initial value
Experimental: After achieving the stationary state in the 30th minute, the hearts were each infused with 50 ml. tyrode solution with a content of test substance of, in each case, 25 μg./ml. Each test substance was tested on 3-6 hearts.
In each case, there was measured the inotropism, the flowthrough and the frequency, whereby the values given in Table I are average values of the percentage changes in comparison with the starting values.

[2] = test system: isolated rat aorta preparations; test: spasmolytic effectiveness on isolated rat aorta preparations (noradrenaline- and potassium chloride-induced contractions)
[3] = acute toxicity in mice according to the method of Lichtfield and Wilcoxon; conditions: mouse, in vivo
Experimental: As to example 1d, the following values for acute toxicity were determined with a greater number of mice, according to the method of Lichtfield and Wilcoxon: […]

mongrel cats [4] = test: inotropic and frequency-lowering heart circulation effectiveness on mongrel cats, intravenous; type: in vivo; set-up: heart frequency previously / dp/dt previously / dp/dt afterwards: unit not given beside the values; conditions: cat; for blood pressure afterwards / dp/dt afterwards / heart frequency afterwards: after; for blood pressure previously / dp/dt previously / heart frequency previously: before; for blood pressure Δ / dp/dt Δ / heart frequency Δ: change
Experimental: (§1) The animals were narcotised with a mixture of chloralose-urethane (1.2 g./kg. urethane+40 mg./kg. chloralose administered i.p.). They breathed spontaneously through a tracheal canula. The A. carotis sinistra was used in order to place a catheter tip manometer into the left heart chamber. The V. jugularis served for injection purposes. Via the A. femoralis dextra, a catheter was pushed in up to the Aorta descendans and attached to a pressure recorder (Statham P 23 Db). The heart frequency was recorded with a pulse frequency measurer (Firm Hugo Sachs Elektronik) from the left ventricular pressure signal.

mongrel cats [5] = test: inotropic and frequency-lowering heart circulation effectiveness on mongrel cats, intraduodenal; type: in vivo; conditions: cat, 5 mg/kg intraduodenal
Experimental: as §1, with “A. femoralis,” for “A. femoralis dextra,”, “pushed” for “pushed in”, “up into” for “up to”, “measurer (firm” for “measurer (Firm”, “signal. A duodenal loop was exposed by a laparotomy. The substances to be tested were injected directly into the lumen.” for “signal.”

guinea pigs = test: blood pressure-lowering effectiveness on narcotised guinea pigs, i.v.; conditions: for blood pressure afterwards: after; for blood pressure previously: before; for blood pressure Δ: change
[6] = read-out: frequency, percentage change in comparison with the initial value
[7] = read-out: inotropism, percentage change in comparison with the initial value
[8] = read-out: ED50 for spasmolytic action, Noradrenaline spasm (50% inhibition)
[9] = read-out: ED50 for spasmolytic action, potassium chloride spasm (50% inhibition)

Work on Cn1c(=O)c2c(ncn2CCCN[C@H]2CO[C@H]3[C@@H]2OC[C@@H]3O[N+](=O)[O-])n(C)c1=O [Example 1d, 5-(3-Theophyllin-7-ylpropyl)-amino-5-desoxy-1.4;3.6-dianhydro-L-iditol 2-nitrate] yielded an activation at 25 µg/mL [1] of 56.4%, an inhibition at 25 µg/mL [1, 6] of 1.95% and an inhibition at 25 µg/mL [1, 7] of 1.29%. The pIC50 [2, 8] was 6.25, the pIC50 [2, 9] was 5.54 and the LD50 ([3]; ip, printed range (678.6-851.2), read-out: LD50 i.p.) was 760 mg/kg. For the same compound, the LD50 ([3]; iv, printed range (190.4-251.9), read-out: LD50 i.v.) was 219 mg/kg, the LD50 ([3]; po, read-out: LD50 p.o.) was 1600 mg/kg and the “blood pressure WD” value (mongrel cats [4]; 0.25 mg/kg i.v.) was 27.71 min. The “dp/dt WD” value (mongrel cats [4]; 0.25 mg/kg i.v.) was 15.57 min, the blood pressure afterwards (mongrel cats [4]; 0.25 mg/kg i.v.) was 64.86 and the dp/dt afterwards (mongrel cats [4]; 0.25 mg/kg i.v.) was 6086. For the same compound, the heart frequency afterwards (mongrel cats [4]; 0.25 mg/kg i.v.) was 184.57, the blood pressure previously (mongrel cats [4]; 0.25 mg/kg i.v.) was 103.00 and the dp/dt previously (mongrel cats [4]; 0.25 mg/kg i.v.) was 7371. For the same compound, the heart frequency previously (mongrel cats [4]; 0.25 mg/kg i.v.) was 180.86, the “blood pressure Δ” value (mongrel cats [4]; 0.25 mg/kg i.v.) was -38.14 and the “dp/dt Δ” value (mongrel cats [4]; 0.25 mg/kg i.v.) was -1285. The “heart frequency Δ” value (mongrel cats [4]; 0.25 mg/kg i.v.) was “+3.71”, the “blood pressure WD” value (mongrel cats [4]; 0.50 mg/kg i.v.) was 20.21 min and the “dp/dt WD” value (mongrel cats [4]; 0.50 mg/kg i.v.) was 24.57 min. It also gave a blood pressure afterwards (mongrel cats [4]; 0.50 mg/kg i.v.) of 61.57, a dp/dt afterwards (mongrel cats [4]; 0.50 mg/kg i.v.) of 5300 and a heart frequency afterwards (mongrel cats [4]; 0.50 mg/kg i.v.) of 182.29. It also gave a blood pressure previously (mongrel cats [4]; 0.50 mg/kg i.v.) of 101.86, a dp/dt previously (mongrel cats [4]; 0.50 mg/kg i.v.) of 6614 and a heart frequency previously (mongrel cats [4]; 0.50 mg/kg i.v.) of 178.29. The “blood pressure Δ” value (mongrel cats [4]; 0.50 mg/kg i.v.) was -40.29, the “dp/dt Δ” value (mongrel cats [4]; 0.50 mg/kg i.v.) was -1314 and the “heart frequency Δ” value (mongrel cats [4]; 0.50 mg/kg i.v.) was “+4.00”. For the same compound, the “blood pressure WD” value (mongrel cats [4]; 1.00 mg/kg i.v.) was 24.29 min, the “dp/dt WD” value (mongrel cats [4]; 1.00 mg/kg i.v.) was 19.58 min and the blood pressure afterwards (mongrel cats [4]; 1.00 mg/kg i.v.) was 59.86. For the same compound, the dp/dt afterwards (mongrel cats [4]; 1.00 mg/kg i.v.) was 5186, the heart frequency afterwards (mongrel cats [4]; 1.00 mg/kg i.v.) was 182.00 and the blood pressure previously (mongrel cats [4]; 1.00 mg/kg i.v.) was 103.43. For the same compound, the dp/dt previously (mongrel cats [4]; 1.00 mg/kg i.v.) was 5957, the heart frequency previously (mongrel cats [4]; 1.00 mg/kg i.v.) was 174.00 and the “blood pressure Δ” value (mongrel cats [4]; 1.00 mg/kg i.v.) was -43.57. The “dp/dt Δ” value (mongrel cats [4]; 1.00 mg/kg i.v.) was -771, the “heart frequency Δ” value (mongrel cats [4]; 1.00 mg/kg i.v.) was “+8.00” and the “blood pressure WD” value (mongrel cats [4]; 2.50 mg/kg i.v.) was > 10 min. The “dp/dt WD” value (mongrel cats [4]; 2.50 mg/kg i.v.) was 6.42 min, the blood pressure afterwards (mongrel cats [4]; 2.50 mg/kg i.v.) was 63.88 and the dp/dt afterwards (mongrel cats [4]; 2.50 mg/kg i.v.) was 6550. For the same compound, the heart frequency afterwards (mongrel cats [4]; 2.50 mg/kg i.v.) was 180.33, the blood pressure previously (mongrel cats [4]; 2.50 mg/kg i.v.) was 107.50 and the dp/dt previously (mongrel cats [4]; 2.50 mg/kg i.v.) was 6383. The heart frequency previously (mongrel cats [4]; 2.50 mg/kg i.v.) was 169.67, the “blood pressure Δ” value (mongrel cats [4]; 2.50 mg/kg i.v.) was -43.62 and the “dp/dt Δ” value (mongrel cats [4]; 2.50 mg/kg i.v.) was “+167”. The “heart frequency Δ” value (mongrel cats [4]; 2.50 mg/kg i.v.) was “+10.66”, the blood pressure (mongrel cats [5]; 0 min) was 115.4 ± 14.4 mm. Hg and the dp/dt (mongrel cats [5]; 0 min) was 6000 ± 1367 mm sec. The frequency (mongrel cats [5]; 0 min) was 173.2 ± 14.5 min⁻¹, the blood pressure (mongrel cats [5]; 10 min) was 86.0 ± 13.8 mm. Hg and the dp/dt (mongrel cats [5]; 10 min) was 4880 ± 1371 mm sec. For the same compound, the frequency (mongrel cats [5]; 10 min) was 173.6 ± 14.8 min⁻¹, the “blood pressure Δ” value (mongrel cats [5]; 10 min vs 0) was -29.4 mm. Hg and the “dp/dt Δ” value (mongrel cats [5]; 10 min vs 0) was -1120 mm sec. For the same compound, the blood pressure (mongrel cats [5]; 30 min) was 88.6 ± 14.8 mm. Hg, the dp/dt (mongrel cats [5]; 30 min) was 4500 ± 1312 mm sec and the frequency (mongrel cats [5]; 30 min) was 166.0 ± 15.6 min⁻¹. The “blood pressure Δ” value (mongrel cats [5]; 30 min vs 0) was -26.8 mm. Hg, the “dp/dt Δ” value (mongrel cats [5]; 30 min vs 0) was -1440 mm sec and the blood pressure (mongrel cats [5]; 60 min) was 95.0 ± 14.4 mm. Hg. For the same compound, the dp/dt (mongrel cats [5]; 60 min) was 5020 ± 1330 mm sec, the frequency (mongrel cats [5]; 60 min) was 168.4 ± 14.0 min⁻¹ and the “blood pressure Δ” value (mongrel cats [5]; 60 min vs 0) was -20.4 mm. Hg. The “dp/dt Δ” value (mongrel cats [5]; 60 min vs 0) was -980 mm sec, the blood pressure (mongrel cats [5]; 120 min) was 99.4 ± 13.2 mm. Hg and the dp/dt (mongrel cats [5]; 120 min) was 5100 ± 1341 mm sec. For the same compound, the frequency (mongrel cats [5]; 120 min) was 164.8 ± 13.2 min⁻¹, the “blood pressure Δ” value (mongrel cats [5]; 120 min vs 0) was -16.0 mm. Hg and the “dp/dt Δ” value (mongrel cats [5]; 120 min vs 0) was -900 mm sec. The blood pressure afterwards (guinea pigs; 0.25 mg/kg i.v.) was 49.75 ± 2.78 mm. Hg, the blood pressure previously (guinea pigs; 0.25 mg/kg i.v.) was 67.75 ± 3.27 mm. Hg and the “blood pressure Δ” value (guinea pigs; 0.25 mg/kg i.v.) was -18.00 mm. Hg. The blood pressure afterwards (guinea pigs; 1.00 mg/kg i.v.) was 40.00 ± 2.12 mm. Hg, the blood pressure previously (guinea pigs; 1.00 mg/kg i.v.) was 68.00 ± 3.85 mm. Hg and the “blood pressure Δ” value (guinea pigs; 1.00 mg/kg i.v.) was -28.00 mm. Hg. For the same compound, the blood pressure afterwards (guinea pigs; 2.50 mg/kg i.v.) was 37.50 ± 1.76 mm. Hg, the blood pressure previously (guinea pigs; 2.50 mg/kg i.v.) was 66.25 ± 2.66 mm. Hg and the “blood pressure Δ” value (guinea pigs; 2.50 mg/kg i.v.) was -28.75 mm. Hg. For the same compound, the “blood pressure-lowering effectiveness compared with ISMN or ISDN” value (guinea pigs; i.v., narcotised guinea pigs) was “more effective than ISMN or ISDN”.
CN(CCCn1cnc2c1c(=O)n(C)c(=O)n2C)[C@H]1CO[C@H]2[C@@H]1OC[C@@H]2O[N+](=O)[O-] [Example 9c, 5-[N-Methyl-N-(3-theophyllin-7-ylpropyl)-amino]-5-desoxy-1.4;3.6-dianhydro-L-iditol 2-nitrate] showed an activation at 25 µg/mL [1] of 40.5%, a percent change from initial value at 25 µg/mL [1, 6] of 0% and an inhibition at 25 µg/mL [1, 7] of 4.3%. For the same compound, the pIC50 [2, 8] was 5.53 and the pIC50 [2, 9] was 4.34.
